Source: patent US20220023315A1, “METHODS OF ACTIVATING MICROGLIAL CELLS” (THE RESEARCH FOUNDATION FOR THE STATE UNIVERSITY OF NEW YORK, priority 2018, published 2022)
Entries after “also recorded” stand apart in the source; their conditions may differ.

Assays:
primary microglia [1] = test: Phagocytosis of FITC-labeled amyloid beta, primary microglia (flow cytometry); format: cell-based, mouse; details: 16 hours, 1.25 μM, then 1 hour beta amyloid-FITC
primary microglia [2] = test: Phagocytosis of PI-stained dead neurons, primary microglia (flow cytometry); format: cell-based, mouse
Excerpt: (§1) Next it was investigated if microglial can phagocytose dead neurons, and to what extent the phagocytosis of dead neurons is enhanced by SHIP inhibitors. Dead neurons were stained with propidium iodide. Propidium iodide is a fluorescent compound that binds to a cell's DNA and can be used to stain dead cells. The phagocytosis of propidium iodide (PI)-stained dead neurons by microglia was investigated by flow cytometry (FIG. 6). […] (FIG. 6C). […] Pan-SHIP inhibition increased phagocytic activity of microglial cells towards dead neurons.

BV2 cells [3] = test: Phagocytosis of FITC-labeled amyloid beta (1-42), BV2 cells (flow cytometry, confocal); format: cell-based; details: for beta amyloid phagocytosis: BV2 cells, 16 hours, 3.75 μM, then 1 hour beta amyloid-FITC
Procedure: It was investigated if the enhanced phagocytic activity of microglia towards lysotracker and dead neurons extended to the enhanced phagocytosis of amyloid proteins. Flow cytometric assays were conducted to detect and compare the ability of SHIP inhibitor compounds to enhance the phagocytosis of amyloid beta 1-42 coupled to FITC. These assays provided a means to compare the ability of SHIP inhibitor compounds to promote a crucial effector function of microglia in the brain that is highly relevant for the pathology of Alzheimer's disease.
Cells were then washed twice and analyzed by flow cytometry for the presence of FITC-labeled amyloid beta (1-42). […] FIG. 7F-H show the confocal images of fixed BV2 cells incubated with beta amyloid with and without K161.

[4] = tested on: AKT, p-mTOR, p-S6 in primary microglia cells; test: Expression of signaling kinases, primary microglia; format: cell-based, mouse
Procedure: (§2) Using both Western blotting and intracellular flow (icFlow) assays activation of key signaling kinases that are known to control proliferation, survival and effector functions in immune cells were examined. This included probing for phosphorylated forms of Akt, ERK, mTOR (p-mTOR) and S6 (p-S6). BV2 cells were incubated with a series of pan-SHIP inhibitors. […] In FIG. 8E, the effect of 3AC on BV2 cells is depicted, as assessed by Western Blotting, with actin and HSP90 as loading controls.

[5] = Detection of K161 in brain tissue by mass spectrometry after single dosing; format: in vivo; details: mice; for detection in brain tissue: 48 hr or 96 hr after administration, mass spectrometry
Procedure: Tissues were harvested 48 hr or 96 hr after administration, and K161 was detected by mass spectrometry and quantitated against a known concentration of K161 spiked into either serum or brain tissue homogenate (FIG. 13A). The calibration curves for K161 are shown in FIGS. 13B and 13C, with the added experimental data points in FIG. 13D. The concentrations of K161 in the brain tissue samples were calculated from the linear characteristics of the standard curve FIG. 13E.

[6] = Serum levels after single dose IP or oral gavage; format: in vivo, mice
Procedure: To assess oral bioavailability, K118 and K161 were administered in a single dose of 10 mg/kg either by IP or by oral gavage, and levels of each were measured in serum (FIG. 14).

[7] = tested on: p-mTOR (Ser2448) and p-S6 in BV2 cells; test: Western blotting and intracellular flow of signaling kinases, BV2 cells; format: cell-based; details: for mTOR phosphorylation at Ser2448: microglia (BV2), Western blotting / icFlow
Procedure: as §2

[8] = tested on: CD11b+CD45low cell population (microglial cells) of the cerebral hemispheres; test: K161-treated mice: phagocytic activity of brain cell populations; format: in vivo
Procedure: In a subsequent experiment, mice were treated twice a week for two weeks with K161. A single cell suspension of the cerebral hemispheres was prepared from K161 (10 mg/kg) and vehicle (H20)-treated mice (n=10/group). Mice were treated twice a week for two weeks, the brains harvested by flow cytometry (FIG. 12A). Box & whisker plots of frequency of single population gated on live cells singlets for markers CD11b, CD45 and ACSA2 (FIG. 12B). The ability of the various cell types to phagocytose dead neurons, beta amyloid and LysoTracker in the absence or presence of K61 are shown in FIG. 12I to 12K. A single cell suspension of the cerebral hemispheres was prepared from K161 (10 mg/kg) and vehicle (H2O)-treated mice (n=10/group). Mice were treated twice a week for two weeks, the brains harvested by flow cytometry. Box & whisker plots of dead neuron (FIG. 12I), beta amyloid (FIG. 12J) and lysotracker assay (FIG. 12K) are shown on a single brain population gated on live cells, singlets and surface markers CD11b, CD45 and ACSA2.
Therefore, SHIP inhibitors, and particularly those that inhibit both SHIP1 and SHIP2, or selectively SHIP2 (e.g., AS1949490—available from commercial suppliers such as Sigma Aldrich and Tocris), can increase microglial phagocytic capacity to remove dead neurons from the CNS.

BV2 cells [9] = test: LysoTracker Red staining of lysosomal/phagosomal compartment, BV2 cells (flow cytometry, confocal); format: cell-based; details: for LysoTrackerRed MFI (phagosomal compartment size): BV2 cells treated 16 hr, 3.75 μM and 5 μM, vs diluent control; for phagosomal compartment size (LysoTrackerRed staining): BV2 cells treated 20 hr, 50 nM LysoTrackerRed
Procedure: Flow cytometric assays were conducted to detect and compare the ability of SHIP inhibitor compounds to increase the phagocytic capacity of microglia as determined by LysoTracker Red staining which is preferentially retained and fluoresces in the acidic environment of the lysosomal/phagosomal subcellular compartment. BV2 cells were treated for 20 hr with 3AC, K118 or K149 at the indicated doses vs. their respective diluent controls, washed twice and incubated with 50 nM LysoTrackerRed and then analyzed by flow cytometry (FIG. 5). Histograms of the LysoTrackerRed staining for each compound at the indicated dose or their diluent control (0 μM) are shown. […] K118 repeated towards BV2 cells (FIG. 5D, 5E) and primary microglial cells (FIG. 5F, 5G). BV2 cells were treated for 16 hr with the indicated K118 concentration and incubated with LysoTrackerRed (50 nM), washed twice and then analyzed by flow cytometry and compared to similarly treated vs. their diluent control primary microglia (0.5% DMSO). Histograms of LysoTrackerRed staining for K118 (Red-3.75 μM, Green-5 μM) or diluent control (Blue, shaded) are shown. In FIG. 5E, line and whisker plots are shown for the mean fluorescence intensity (MFI) of LysoTrackerRed staining at the indicated concentrations of K118.
Pan-SHIP1/2 inhibition increased microglial lysosomal/phagosomal compartment.

BV2 cells [10] = test: Phagocytosis of PI-stained dead neurons, BV2 cells (flow cytometry); format: cell-based; details: for phagocytosis of dead neurons, selective inhibitors alone or combined: BV2 cells (FIG. 6C)
Excerpt: as §1

BV2 cells [11] = test: CCK-8 assay of cell growth, BV2 cells; format: cell-based; details: 48 hr
Procedure: (§3) The ability of 3AC, K118 and K149 to promote the proliferation of BV2 and SIM-A9 microglial cells was tested in vitro. Cells were counted with a cell counting kit-8 (e.g. CCK-8) which is a sensitive colorimetric assays for the determination of cell viability in cell proliferation and cytotoxicity assays. It uses the highly water-soluble tetrazolium salt, WST-8, which is reduced by dehydrogenase activities in cells to give a yellow-color formazan dye, which is soluble in the tissue culture media. The amount of the formazan dye, generated by the activities of dehydrogenases in cells, is directly proportional to the number of living cells.
(§4) A CCK-8 assay was performed for analysis of cell growth of BV2 cells (FIG. 4A), and SIM-A9 cells (FIG. 4B) vs. their respective vehicle controls (100%) at 48 hr. Each point represents the mean of the 6 replicates for each dose.

SIM-A9 cells [12] = test: CCK-8 assay of cell growth, SIM-A9 cells; format: cell-based; details: 48 hr
Procedure: as §3, §4

SIM-A9 cells [13] = test: Phagocytosis of PI-stained dead neurons, SIM-A9 cells (flow cytometry); format: cell-based; details: Torin with K161
Excerpt: as §1

[14] = 10 mg/kg twice a week for two weeks, vs vehicle

Cc1c(CCN)c2ccccc2n1Cc1ccccc1Cl.Cl
melting point: 161 to 169 °C

CC[C@H]1CC[C@H]2[C@@H]3C[C@@H](O)C4C[C@H](N)CC[C@]4(C)[C@H]3CC[C@]12C (stereo partly shown)
melting point: 193 to 195 °C

C[C@@]12CCC[C@H]1C1CC[C@H]3C[C@H](N)[C@H](N)C[C@]3(C)[C@H]1CC2.Cl.Cl (stereo in doubt) [K161, (2R,3S,5S,8R,9S,10S,13S,14S)-10,13-dimethylhexadecahydro-1H-cyclopenta[a]phenanthrene-2,3-diaminium Chloride]
beta amyloid phagocytosis (primary microglia [1]): Significant increases in beta amyloid phagocytosis
phagocytic activity towards dead neurons (primary microglia [2]; primary microglia, 16 hr, 1.25 μM): enhanced the phagocytic activity
beta amyloid phagocytosis (BV2 cells [3]): Significant increases in beta amyloid phagocytosis; also recorded: significantly increased
phagosomal component, confocal images (BV2 cells [3]; fixed BV2 cells incubated with beta amyloid): the phagosomal component is increased
activation of AKT [4]: activated AKT
activation of p-S6 [4]: not p-mTOR or p-S6
activation of p-mTOR [4]: not p-mTOR or p-S6
blood brain barrier penetration ([5]; 10 mg/kg IP or oral gavage): can penetrate the blood brain barrier
detection in brain tissue ([5]; 10 mg/kg IP): detectable in the brain tissue
detection in brain tissue ([5]; 10 mg/kg oral gavage): detectable in the brain tissue
decay in vivo, compared ([6]; mouse, in vivo, 10 mg/kg): decay more rapidly in vivo than K118
oral bioavailability ([6]; single dose 10 mg/kg IP or oral gavage, levels in serum): have oral bioavailability
p-S6 expression ([7]; BV2 cells): increase in p-S6 expression
p-mTOR (Ser2448) expression, mean fluorescence intensity ([7]; BV2 cells, 16 hr, intracellular flow): significantly increased p-MTOR expression
mTOR phosphorylation at Ser2448 [7]: increase mTOR phosphorylation at Ser2448
ability to phagocytose beta amyloid, CD11b+CD45low cells [8, 14]: increased ability to phagocytose dead neurons and beta amyloid
ability to phagocytose dead neurons, CD11b+CD45low cells [8, 14]: increased ability to phagocytose dead neurons and beta amyloid
size of the phagosomal compartment in subsets of microglial cells in the brain ([8]; intraperitoneal injection twice a week for two weeks): increased the size of the phagosomal compartment

CC(C)CCC[C@@H](C)[C@H]1CC[C@H]2[C@@H]3CCC4C[C@H](N)CC[C@]4(C)[C@H]3CC[C@]12C (stereo partly shown) [3AC]
LysoTrackerRed MFI (phagosomal compartment size) (BV2 cells [9]): statistically significant increase in the phagosomal compartment size
phagosomal compartment size (LysoTrackerRed staining) (BV2 cells [9]): only a modest increase
mTOR phosphorylation at Ser2448 [7]: increase mTOR phosphorylation at Ser2448
phagocytosis of dead neurons, selective inhibitors alone or combined (BV2 cells [10]): not either of those inhibitors alone, increased phagocytosis

C[C@H](NC(=O)c1sccc1OCc1ccc(Cl)cc1)c1ccccc1 [AS1949490]
phagocytosis of dead neurons, selective inhibitors alone or combined (BV2 cells [10]): not either of those inhibitors alone, increased phagocytosis

CSc1ccc2c(c1)c(CCN)c(C)n2Cc1ccc(Cl)cc1Cl [K149]
LysoTrackerRed MFI (phagosomal compartment size) (BV2 cells [9]): statistically significant increase in the phagosomal compartment size
phagosomal compartment size (LysoTrackerRed staining) (BV2 cells [9]): robust increases
beta amyloid phagocytosis (BV2 cells [3]): Significant increases in beta amyloid phagocytosis; also recorded: significantly increased
cell growth vs. vehicle control (100%) (BV2 cells [11]): showed effects at 2.5, 3.75 and 5 μM concentrations
mTOR phosphorylation at Ser2448 [7]: increase mTOR phosphorylation at Ser2448
cell growth (proliferation) vs. vehicle control (100%) (SIM-A9 cells [12]): an effect on proliferation was observed

Torin
effect on K161-enhanced phagocytosis of dead neurons (primary microglia [2]; primary microglial cells, Torin with K161): did not abolish the increase in phagocytosis of dead neurons by K161
effect on K161-enhanced phagocytosis of dead neurons (SIM-A9 cells [13]): did not abolish the increase in phagocytosis of dead neurons by K161
effect on K161-enhanced phagocytosis of dead neurons (BV2 cells [10]; BV2 cells, Torin with K161): did not abolish the increase in phagocytosis of dead neurons by K161
